From PMC9853869, “The Myxobacterial Antibiotic Myxovalargin: Biosynthesis, Structural Revision, Total Synthesis, and Molecular Characterization of Ribosomal Inhibition” (Journal of the American Chemical Society, 2023)
Converted amounts (≈) assume the structure as drawn. Read-outs that look alike come from different tables or passages of the source. *1 amine or outer side, *2 acyl side, *3 side chain or, on linkers, in order; H or OH if unused. Where a SMILES comes first, the peptide text is derived from it. [ ]: non-standard residue; d: D form. The star is where a group is joined. X1 = O=C(C[C@H](N[*:1])c1ccc(O)cc1)[*:2]; dVal(3-OH) = CC(C)(O)[C@@H](N)C(=O)O; X2 = CCC(C)=C(N[*:1])C(=O)[*:2]; ΔIle(E) = CC/C(C)=C(/N)C(=O)O; Isovaleryl = CC(C)CC(=O)*; Agmatine = N=C(N)NCCCCN*; Isobutyryl = CC(C)C(=O)*; NMeA = CN[C@@H](C)C(=O)O; ΔVal = CC(C)=C(N)C(=O)O

How the values were obtained:
[1] = tested on: Pasteurella multocida
[2] = tested on: Chromobacterium violaceum DSM-30191; conditions: DSM-30191, 24 h
[3] = tested on: Enterococcus faecium DSM-20477; conditions: DSM-20477, 24 h
[4] = tested on: Escherichia coli DSM-1116; conditions: DSM-1116, 24 h
[5] = tested on: Escherichia coli K12 ΔtolC; conditions: K12, 24 h
[6] = tested on: Micrococcus luteus DSM-1790; conditions: DSM-1790, 24 h
[7] = tested on: Mycobacterium smegmatis mc2155; conditions: mc2155, 48 h
[8] = tested on: Pseudomonas aeruginosa PAO1; conditions: PAO1, 24 h
[9] = tested on: Pseudomonas aeruginosa PA14; conditions: PA14, 24 h
[10] = tested on: Staphylococcus aureus DSM-346; conditions: DSM-346, 24 h
[11] = tested on: M. tuberculosis H37Rv
[12] = tested on: M. tuberculosis; conditions: for toxicity in infected mice: mouse, in vivo
[13] = tested on: eukaryotic translation; conditions: cited from earlier work
Text: Microorganisms continue to be a major source for innovative antibiotics. Ubiquitously found but understudied soil-dwelling predatory myxobacteria have proven to be a rich source of bioactive compounds.[3]−[5] […] The myxovalargin structure was described in 1987 as comprising some congeners with Myxovalargin A (MyxA) ...

[14] = tested on: wildtype E. coli ribosomes; type: biochemical; conditions: purified wildtype 70S ribosomes, increasing concentrations
[15] = tested on: E. coli ribosomes bearing the A2503G mutation; type: biochemical
[16] = tested on: ribosome; experiment: Toeprinting assay on ErmBL mRNA; type: biochemical, E. coli; conditions: 10–100 μM, absence of isoleucine
Procedure: To address the mechanism of action of myxovalargins, we employed the toeprinting assay, which uses reverse transcription to monitor the position of ribosomes on a mRNA (Figure 6a).[24] The assay was performed in the absence of isoleucine (Ile) such that in the absence of antibiotics, ribosomes can initiate at the AUG start codon but become stuck after translating 15 amino acids when the Ile “catch-codon” enters the A-site (Figure 6a,b). […] We also performed toeprinting reactions in the presence of 5 μM erythromycin (Ery), which allows ribosomes to translate the first 10 amino acids of the ErmBL mRNA but then stalls them with GAU (Asp) codon in the P-site (Figure 6a,b), as reported previously.[25]−[27] After pre-incubation with Ery, we titrated reactions with increasing MyxB, which also led to a loss of the Ery-dependent ErmBL stalling band and appearance of ribosomes positioned on the start codon (Figure 6b), consistent with the overlap in ribosomal binding sites of MyxB and Ery (Figure 6c,d). […] Indeed, in the MyxB-SRC, we observed the simultaneous presence of P-site tRNA and MyxB (Figure 5d) but no ribosomes with additional presence of A-site tRNA (Figure S7-5). […]

[17] = tested on: 23S rRNA of the large ribosomal subunit; type: binding, E. coli; conditions: 10 μM or 100 μM
[18] = tested on: M. tuberculosis H37Rv; experiment: Time-kill kinetics in vitro; type: cell-based, Mycobacterium tuberculosis; conditions: independent triplicates
[19] = tested on: intracellular M. tuberculosis H37Rv; experiment: Intracellular activity ex vivo in THP-1-derived macrophages; type: cell-based, Mycobacterium tuberculosis
[20] = tested on: HepG2 cells; conditions: HepG2, 24 h, alamarBlue, 0.005 - 99.0 μM, mean of 4 replicates
[21] = tested on: Mannheimia haemolytica
[22] = tested on: Pasteurella multocida; remark: listed apart in the source
[23] = tested on: Histophilus somni
[24] = tested on: Staphylococcus aureus; conditions: 4 h
[25] = tested on: Streptococcus uberis; conditions: 4 h
[26] = in vivo; conditions: BALB/c, mouse

In the case of `CCN1CCN(c2cc3c(cc2F)c(=O)c(C(=O)O)cn3C2CC2)CC1` [enrofloxacin, reference compound], the “Mean bacteria in liver” value ([1]; 10 mg/kg enrofloxacin, s.c.) is reported as 0 CFU/g and the “Survival rate 48 hpi” value ([1]; 10 mg/kg enrofloxacin, s.c.) is reported as 100%.

Compound `CC(C)=C(NC(=O)C(C)C)C(=O)N[C@@H](C)C(=O)N(C)[C@@H](C)C(=O)N[C@@H](C(=O)N[C@@H](C(=O)N[C@@H](CC(=O)N[C@@H](C(=O)NC(C(=O)N[C@H](CCCNC(=N)N)C(=O)N[C@H](C(=O)N[C@@H](C(=O)NC(C(=O)N[C@H](C)C(=O)N[C@@H](C(=O)NCCCCNC(=N)N)C(C)(C)O)=C(C)C)C(C)C)C(C)C)=C(C)C)C(C)C)c1ccc(O)cc1)C(C)C)C(C)C` [Myx C] (Isobutyryl-[ΔVal]A[NMeA][dV][dV][X1][dV][ΔVal][dR]V[dV][ΔVal][dA][dVal(3-OH)]-Agmatine) has an MIC [2] of 8 µg/mL (≈ 4.85 µM), an MIC [3] of 1 µg/mL (≈ 0.606 µM) and an MIC [4] of 64 µg/mL (≈ 38.8 µM). The MIC [5] was 32 µg/mL (≈ 19.4 µM), the MIC [6] was 2 µg/mL (≈ 1.21 µM) and the MIC [7] was 4 µg/mL (≈ 2.43 µM). The MIC [8] was 64 µg/mL (≈ 38.8 µM), the MIC [9] was 32 µg/mL (≈ 19.4 µM) and the MIC [10] was 2 µg/mL (≈ 1.21 µM).

For `CCC(C)=C(NC(=O)[C@H](NC(=O)[C@@H](NC(=O)[C@@H](CCCNC(=N)N)NC(=O)C(NC(=O)[C@H](NC(=O)C[C@H](NC(=O)[C@H](NC(=O)[C@H](NC(=O)[C@H](C)N(C)C(=O)[C@H](C)NC(=O)C(NC(=O)CC(C)C)=C(C)C)C(C)C)C(C)C)c1ccc(O)cc1)C(C)C)=C(C)C)C(C)C)C(C)C)C(=O)N[C@H](C)C(=O)N[C@@H](C(=O)NCCCCNC(=N)N)C(C)(C)O` [Myxovalargin] (Isovaleryl-[ΔVal]A[NMeA][dV][dV][X1][dV][ΔVal][dR]V[dV][X2][dA][dVal(3-OH)]-Agmatine), the “MIC (antitubercular activity)” value [11] is listed as 0.2 µg/mL (≈ 0.119 µM), the “toxicity in infected mice” value [12] is listed as “moribund within 1 week” and the “inhibition of eukaryotic translation” value [13] is listed as “did not inhibit eukaryotic translation”.

With `CCC(C)=C(NC(=O)[C@H](NC(=O)[C@@H](NC(=O)[C@@H](CCCNC(=N)N)NC(=O)C(NC(=O)[C@H](NC(=O)C[C@H](NC(=O)[C@H](NC(=O)[C@H](NC(=O)[C@H](C)N(C)C(=O)[C@H](C)NC(=O)C(NC(=O)C(C)C)=C(C)C)C(C)C)C(C)C)c1ccc(O)cc1)C(C)C)=C(C)C)C(C)C)C(C)C)C(=O)N[C@H](C)C(=O)N[C@@H](C(=O)NCCCCNC(=N)N)C(C)(C)O` [MyxB] (Isobutyryl-[ΔVal]A[NMeA][dV][dV][X1][dV][ΔVal][dR]V[dV][X2][dA][dVal(3-OH)]-Agmatine) the “in vitro translation of firefly luciferase reporter” value [14] was “inhibited by MyxB in a dose-dependent fashion”, the “in vitro translation of firefly luciferase reporter” value [15] was “completely resistant” and the “position of arrested ribosomes (toeprint)” value [16] was “ribosomes positioned with the AUG start codon in the P-site”. For the same compound, the “protection from dimethyl sulfate modification” value [17] was “protects multiple 23S rRNA nucleotides”, the MIC [2] was 32 µg/mL (≈ 19.2 µM) and the MIC [3] was 1 µg/mL (≈ 0.601 µM). For the same compound, the MIC [4] was 64 µg/mL (≈ 38.5 µM), the MIC [5] was 32 µg/mL (≈ 19.2 µM) and the MIC [6] was 2 µg/mL (≈ 1.2 µM). It also gave an MIC [7] of 8 µg/mL (≈ 4.81 µM), an MIC [8] of 64 µg/mL (≈ 38.5 µM) and an MIC [9] of 32 µg/mL (≈ 19.2 µM). It also gave an MIC [10] of 8 µg/mL (≈ 4.81 µM).

For `CC/C(C)=C(/NC(=O)[C@H](NC(=O)[C@@H](NC(=O)[C@@H](CCCNC(=N)N)NC(=O)C(NC(=O)[C@H](NC(=O)C[C@H](NC(=O)[C@H](NC(=O)[C@H](NC(=O)[C@H](C)N(C)C(=O)[C@H](C)NC(=O)C(NC(=O)CC(C)C)=C(C)C)C(C)C)C(C)C)c1ccc(O)cc1)C(C)C)=C(C)C)C(C)C)C(C)C)C(=O)N[C@H](C)C(=O)N[C@@H](C(=O)NCCCCNC(=N)N)C(C)(C)O` [MyxA, Myxovalargin A] (Isovaleryl-[ΔVal]A[NMeA][dV][dV][X1][dV][ΔVal][dR]V[dV][ΔIle(E)][dA][dVal(3-OH)]-Agmatine), the “mode of killing in vitro” value [18] was “dose-dependent bactericidal activity”, the “mode of action ex vivo (intracellular)” value [19] was “bacteriostatic activity” and the MIC [11] was 0.2 µg/mL (≈ 0.119 µM). The “median cytotoxic dose CTD50” value [20] was greater than 99 µM, the MIC [2] was 8 µg/mL (≈ 4.77 µM) and the MIC [3] was 0.5 µg/mL (≈ 0.298 µM). The MIC [4] was 32 µg/mL (≈ 19.1 µM), the MIC [5] was 16 µg/mL (≈ 9.54 µM) and the MIC [6] was 1 µg/mL (≈ 0.596 µM). For the same compound, the MIC [7] was 4 µg/mL (≈ 2.39 µM), the MIC [8] was 32 µg/mL (≈ 19.1 µM) and the MIC [9] was 16 µg/mL (≈ 9.54 µM). For the same compound, the MIC [10] was 2 µg/mL (≈ 1.19 µM), the MIC50 ([21]; 4 h) was 16 µg/mL (≈ 9.54 µM) and the “MIC + serum” value ([21]; 4 h) was 20 µg/mL. The MIC90 ([21]; bovine isolates, n = 55) was 16 µg/mL (≈ 9.54 µM), the MIC50 ([22]; 4 h) was 16 µg/mL (≈ 9.54 µM) and the “MIC + serum” value ([22]; 4 h) was 10 µg/mL. It also gave an MIC90 ([22]; bovine isolates, n = 25) of 16 µg/mL (≈ 9.54 µM), an MIC50 ([23]; 4 h) of 4 µg/mL (≈ 2.39 µM) and an MIC range ([23]; 4 h) of 2 to 8 µg/mL. The MIC90 ([23]; bovine isolates, n = 20) was 8 µg/mL (≈ 4.77 µM), the MIC [24] was 1 to 2 µg/mL and the “MIC + milk” value [24] was greater than 64 µg/mL. For the same compound, the MIC [25] was 0.25 to 2 µg/mL, the “MIC + milk” value [25] was greater than 64 µg/mL and the “Survival rate 48 hpi” value ([1]; 10 mg/kg MyxA, i.p., single dose 1 h post-infection, groups of 6) was 83%. For the same compound, the “Mean bacteria in liver” value ([1]; 10 mg/kg MyxA, i.p., n=1) was 8.5 x 10^7 CFU/g, the “Mean bacteria in liver” value ([1]; 10 mg/kg MyxA, i.p., n=5) was 0 CFU/g and the “bacteriological cure (animals)” value ([1]; 10 mg/kg i.p.) was “five out of six”. The “Mean bacteria in liver” value ([1]; 50 mg/kg MyxA, s.c.) was 1.8 x 10^6 CFU/g, the “Survival rate 48 hpi” value ([1]; 50 mg/kg MyxA, s.c., single dose 1 h post-infection) was 0% and the “tolerability (clinical scoring)” value ([1]; single 10 mg/kg i.p. dose, P. multocida sepsis model) was “well tolerated”. The tolerability (0.5 mg/kg/day i.p., seven consecutive doses) was “well tolerated”, the tolerability (5 mg/kg/day i.p., on day 2) was “severe adverse effects” and the “half-life (in words)” value (mice, i.p. 0.5, 2 and 5 mg/kg, blood, LC-MS) was “long half-life”. The “effect on bacterial burden in lung and spleen” value ([12]; 2 mg/kg i.p. daily, study terminated after 1 week) was “no significant effect on bacterial burden”, the “toxicity in infected mice” value [12] was “moribund after 1 week” and the level at 0.5 h ([26]; ip, 10 mg/kg) was 1830 ng/mL. The level at 2 h ([26]; ip, 10 mg/kg) was 1550 ng/mL, the level at 0.5 h ([26]; sc, 50 mg/kg) was 5260 ng/mL and the level at 2 h ([26]; sc, 50 mg/kg) was 2280 ng/mL.
